In PMC12660299, “Isoliquiritigenin Attenuates Staphylococcus aureus Adhesion and Invasion to Counteract Staphylococcus aureus Pathogenicity and Infection” (Frontiers in Cellular and Infection Microbiology, 2025):
pIC50: −log10 of the molar value.

Target: T1, sortase A (SrtA) (Staphylococcus aureus, UniProt Q2FV99)
T1 construct: recombinant SrtAΔN59
Test: FRET peptide-cleavage assay with purified recombinant SrtA; supported by fluorescence quenching (Ka = […] L/mol) and reversibility by dilution
Format: biochemical

T1 sequence (Q2FV99 60-206): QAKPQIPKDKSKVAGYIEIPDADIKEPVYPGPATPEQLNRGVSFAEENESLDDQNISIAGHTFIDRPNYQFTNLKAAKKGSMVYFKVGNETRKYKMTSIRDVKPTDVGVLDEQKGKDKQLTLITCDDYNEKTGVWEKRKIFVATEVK

## O=C(/C=C/c1ccc(O)cc1)c1ccc(O)cc1O [ISL, isoliquiritigenin]
  pIC50: 4.28
